Values after ≈ are worked out from the molar mass of the structure shown. Active and inactive are the calls of the source. Unless noted, the rule behind the calls is not given here.
Experiments:
[1] = test system: Staphylococcus aureus; experiment: Antimicrobial activity against methicillin-resistant Staphylococcus aureus CBD-635 assessed as zone of inhibition at 5 mg/ml after 24 hrs by disk diffusion assay; format: functional; settings: CBD-635, 24 h, read-out: IZ
[2] = test system: Staphylococcus aureus; experiment: Antimicrobial activity against methicillin-resistant Staphylococcus aureus CBD-635 assessed as complete inhibition of bacterial growth after overnight incubation; format: functional
[3] = Aqueous solubility of the compound at pH 7.4 after 18 hrs incubation by HPLC; format: physicochemical
[4] = Aqueous solubility of the compound at pH 2 after 18 hrs incubation by HPLC; format: physicochemical
[5] = Lipophilicity, log D of the compound at pH 7.4; format: physicochemical; settings: buffer
[6] = Lipophilicity, log D of the compound at pH 3; format: physicochemical; settings: buffer
[7] = test system: Staphylococcus aureus; experiment: Bactericidal activity against methicillin-resistant Staphylococcus aureus CBD-635 assessed as bacterial killing; format: functional
[8] = Cytotoxicity against human A549 cells assessed as cell viability recovery up to 407 uM by MTT assay relative to untreated control; format: cell-based; settings: read-out: Activity
[9] = Cytotoxicity against human A549 cells assessed as cell viability recovery at 1.6 to 16 uM by MTT assay relative to untreated control; format: cell-based; settings: read-out: Activity
[10] = Cytotoxicity against human A549 cells assessed as cell viability recovery at 41 to 410 uM by MTT assay relative to untreated control; format: cell-based; settings: read-out: Activity
[11] = test system: Staphylococcus aureus; experiment: Antimicrobial activity against methicillin-resistant Staphylococcus aureus CBD-635 assessed as complete inhibition of bacterial growth at 5 times MIC after overnight incubation in presence of tetrahydrofolic acid; format: functional, organism-based
[12] = test system: Staphylococcus aureus; experiment: Antimicrobial activity against trimethoprim-resistant Staphylococcus aureus assessed as complete inhibition of bacterial growth after 24 hrs; format: functional, organism-based
[13] = test system: Staphylococcus aureus; experiment: Antimicrobial activity against quinazoline-resistant Staphylococcus aureus assessed as complete inhibition of bacterial growth after 24 hrs; format: functional, organism-based
[14] = test system: Staphylococcus aureus; experiment: Antimicrobial activity against wild type Staphylococcus aureus in presence of sulfamethoxazole; format: functional
[15] = test system: Staphylococcus aureus; experiment: Antimicrobial activity against Staphylococcus aureus infected Galleria mellonella assessed as increase in larvae survival at 5 times MIC; format: functional
[16] = test system: Staphylococcus aureus; experiment: Antimicrobial activity against Staphylococcus aureus infected Galleria mellonella assessed as increase in larvae survival at 10 times MIC; format: functional
[17] = test system: Staphylococcus aureus; experiment: Antimicrobial activity against Staphylococcus aureus infected in mouse assessed as increase in mouse survival at 5 times MIC via tail vein relative to untreated control; format: functional
[18] = pampa, pH 7.4
[19] = pampa, pH 4
[20] = physchem; settings: pampa, pH 7.4
[21] = physchem; settings: pampa, pH 4
[22] = Cytotoxicity against human A549 cells assessed as cell viability recovery up to 440 uM by MTT assay relative to untreated control; format: cell-based; settings: read-out: Activity
[23] = Cytotoxicity against human A549 cells assessed as cell viability recovery at 1.8 to 8.8 uM by MTT assay relative to untreated control; format: cell-based; settings: read-out: Activity
[24] = Cytotoxicity against human A549 cells assessed as cell viability recovery at 18 uM by MTT assay relative to untreated control; format: cell-based; settings: read-out: Activity
[25] = Cytotoxicity against human A549 cells assessed as cell viability recovery at 440 uM by MTT assay relative to untreated control; format: cell-based; settings: read-out: Activity
[26] = Cytotoxicity against human A549 cells assessed as cell viability recovery up to 459 uM by MTT assay relative to untreated control; format: cell-based; settings: read-out: Activity
[27] = Cytotoxicity against human A549 cells assessed as cell viability recovery at up to 9.2 uM by MTT assay relative to untreated control; format: cell-based; settings: read-out: Activity
[28] = Cytotoxicity against human A549 cells assessed as cell viability recovery at 36.7 to 459 uM by MTT assay relative to untreated control; format: cell-based; settings: read-out: Activity
[29] = test system: Staphylococcus; experiment: Antibacterial activity against Staphylococcus; format: functional
[30] = test system: Streptococcus; experiment: Antibacterial activity against Streptococcus; format: functional
[31] = test system: Moraxella catarrhalis; experiment: Antimicrobial activity against Moraxella catarrhalis; format: functional
[32] = test system: Haemophilus influenzae; experiment: Antimicrobial activity against Haemophilus influenzae; format: functional
[33] = test system: Listeria monocytogenes; experiment: Antimicrobial activity against Listeria monocytogenes; format: functional
[34] = test system: Legionella pneumophila; experiment: Antimicrobial activity against Legionella pneumophila; format: functional
[35] = test system: Neisseria sp.; experiment: Antimicrobial activity against Neisseria species; format: functional
[36] = test system: Staphylococcus aureus; experiment: Antibacterial activity against methicillin-resistant Staphylococcus aureus SA-1417 infected in mouse assessed as protection of mouse; format: functional; settings: read-out: PD50
[37] = test system: Enterococcus; experiment: Antibacterial activity against Enterococcus; format: functional
[38] = test system: Staphylococcus aureus; experiment: Antimicrobial activity against wild type Staphylococcus aureus; format: functional
[39] = test system: Staphylococcus aureus; experiment: Antimicrobial activity against Staphylococcus aureus; format: functional, organism-based
[40] = test system: Bacillus subtilis; experiment: Antimicrobial activity against Bacillus subtilis; format: functional, organism-based
[41] = test system: Streptococcus pyogenes; experiment: Antimicrobial activity against Streptococcus pyogenes; format: functional
[42] = test system: Salmonella typhimurium; experiment: Antimicrobial activity against Salmonella typhimurium; format: functional, Salmonella enterica subsp. enterica serovar Typhimurium; settings: Salmonella enterica
[43] = test system: Escherichia coli; experiment: Antimicrobial activity against Escherichia coli; format: functional
[44] = test system: Aspergillus niger; experiment: Antimicrobial activity against Aspergillus niger; format: functional
[45] = test system: Candida albicans; experiment: Antimicrobial activity against Candida albicans; format: functional
[46] = test system: Trichoderma viride; experiment: Antimicrobial activity against Trichoderma viride; format: functional
[47] = test system: Klebsiella pneumoniae; experiment: Antimicrobial activity against Klebsiella pneumoniae; format: functional

Compound `CCCCNc1nc(NCc2ccccc2)c2ccccc2n1` has a zone of inhibition at 5000 µg/mL [1] of 12 mm, an MIC [2] of 3.3 µM (≈ 1.01 µg/mL) and a solubility at 18 h [3] of at most 20 µM. The solubility at 18 h [4] was at least 30 µM, the logD [5] was 3.8 and the logD [6] was 2.84. The MBC50 [7] was 0.98 µM (≈ 0.3 µg/mL), the viability [8] was over 60% and the viability at up to 16 µM [9] was over 100%. The viability at up to 410 µM [10] was over 95%, the inhibition [11] was “inactive” and the inhibition [12] was “Active”. For the same compound, the inhibition [13] was “Active”, the “fractional inhibitory concentration index (FICI)” value [14] was 0.11 and the Survival [15] was 40%. For the same compound, the Survival [16] was 70%, the Survival [17] was 69% and the permeability [18] was 1250 ×10⁻⁶ cm/s. It also gave a permeability [19] of 161 ×10⁻⁶ cm/s.
`CNC(=C[N+](=O)[O-])NCCSCc1ccc(CN(C)C)o1.Cl` [RANITIDINE HYDROCHLORIDE] gave a Papp [20] of 2.2 ×10⁻⁶ cm/s and a Papp [21] of 5.2 ×10⁻⁶ cm/s.
In the case of `CC(C)Nc1nc(NC2CCCCC2)c2ccccc2n1`, the zone of inhibition at 5000 µg/mL [1] is reported as 13 mm, the MIC [2] is reported as 3.5 µM (≈ 0.995 µg/mL) and the solubility at 18 h [3] is reported as at most 30 µM. The solubility at 18 h [4] was at least 30 µM, the logD [5] was 4.69 and the logD [6] was 3.56. The MBC50 [7] was 8.8 µM (≈ 2.5 µg/mL), the viability [22] was over 60% and the viability at up to 8.8 µM [23] was over 100%. For the same compound, the viability at 18 µM [24] was 98.6%, the viability at 440 µM [25] was 70.3% and the inhibition [11] was “inactive”. For the same compound, the inhibition [12] was “Active”, the inhibition [13] was “Active” and the “fractional inhibitory concentration index (FICI)” value [14] was 0.1. It also gave a Survival [15] of 40%, a Survival [16] of 70% and a permeability [18] of 783 ×10⁻⁶ cm/s. It also gave a permeability [19] of 112 ×10⁻⁶ cm/s.
`CCCCNc1nc(NCCCC)c2ccccc2n1` showed a zone of inhibition at 5000 µg/mL [1] of 12 mm, an MIC [2] of 0.37 µM (≈ 0.101 µg/mL) and an MBC50 [7] of 0.036 µM (≈ 0.00981 µg/mL). It also gave a viability [26] of over 50%, a viability [27] of 100% and a viability at up to 459 µM [28] of 58.8%. For the same compound, the inhibition [11] was “inactive”.
Compound `Cc1c(N2CC[C@@H]([C@H](C)N)C2)c(F)cc2c(=O)[nH]c(=O)n(C3CC3)c12` has an MIC90 [29] of 0.5 µg/mL (≈ 1.44 µM), an MIC90 [30] of 0.06 µg/mL (≈ 0.173 µM) and an MIC90 [31] of 0.5 µg/mL (≈ 1.44 µM). It also gave an MIC90 [32] of 0.5 µg/mL (≈ 1.44 µM), an MIC90 [33] of 0.5 µg/mL (≈ 1.44 µM) and an MIC90 [34] of 0.5 µg/mL (≈ 1.44 µM). The MIC90 [35] was 0.5 µg/mL (≈ 1.44 µM), the ED50 [36] was 2.5 mg/kg and the MIC [37] was 2 µg/mL (≈ 5.77 µM).
Work on `Cc1cc(NS(=O)(=O)c2ccc(N)cc2)no1` [SULFAMETHOXAZOLE] yielded an MIC [38] of 2400 µM (≈ 608 µg/mL).
`c1ccc2c(c1)cc1c3ccccc3nc(-c3csc4ccccc34)n21` showed an MIC [39] of 2 µg/mL (≈ 5.71 µM), an MIC [40] of 2 µg/mL (≈ 5.71 µM) and an MIC [41] of 2 µg/mL (≈ 5.71 µM). For the same compound, the MIC [42] was 2 µg/mL (≈ 5.71 µM), the MIC [43] was 2 µg/mL (≈ 5.71 µM) and the MIC [44] was 2 µg/mL (≈ 5.71 µM). It also gave an MIC [45] of 2 µg/mL (≈ 5.71 µM), an MIC [46] of 2 µg/mL (≈ 5.71 µM) and an MIC [47] of 2 µg/mL (≈ 5.71 µM).
In the case of `Cc1ccc(Nc2nc(-c3ccccc3)nc3ccccc23)cc1`, the EC50 [39] is reported as 0.8 µg/mL (≈ 2.57 µM), the MIC [39] is reported as 10 µg/mL (≈ 32.1 µM) and the EC50 [40] is reported as 0.7 µg/mL (≈ 2.25 µM). The MIC [40] was 1 µg/mL (≈ 3.21 µM).

Reference: ChEMBL document CHEMBL3259619, “Antibacterial activity of a series of N2,N4-disubstituted quinazoline-2,4-diamines” (J Med Chem, 2014)
